Reference: patent US10857180B2, “Pharmaceutical composition for improving health, cure abnormalities and degenerative disease, achieve anti-aging effect of therapy and therapeutic effect on mammals and method thereof” (priority 2014, dated 2020)
“And” between values parts separate entries of the source, which are not always exact repeats. Equal values may be shown once. Marks after values point to notes of the source that are not given here.

System: mouse L1210 leukemia
Test: Mouse L1210 leukemia model
Assay type: in vivo
Procedure: The efficacy of the ^64Zne aspartate composition with respect to growth and metastatic activity of the experimental tumor (strain of mouse L1210 leukemia) was assessed in the experiment. […] To inoculate the strain, tumor cells derived from ascitic fluid were placed in normal saline solution, the cellularity of suspension was determined using a hemocytometer and adjusted to a concentration of 1×10^6 cells/ml with saline solution. The tumor was transplanted by injecting 250 μl of the tumor cell suspension (0.25×10^6 cells/mouse) into abdominal cavities of the animals. 80 male BDFi mice at the age of 8-10 weeks, weighing 18-22 g were used in the experiment.
In the experiment, 0.25×10^6 cells of mouse L1210 leukemia in 0.3 ml of saline solution were injected in the peritoneal cavities of the BDFi mice. The agent according to the invention was dissolved in deuterium-depleted water (deuterium-depleted water Langvey) and given to the experimental animals from the first day after the inoculation of the tumor cells. The solution composition comprising ^64Zne aspartate and deuterium-depleted water was injected intraperitoneally using a microinjection syringe at doses of 25 μg/mouse, 50 μg/mouse and 75 pig/mouse every other day (7 times during 14 days) in a volume of 0.5 ml/mouse. The said agent was also injected intravenously at a dose of 25 μg/mouse every other day (7 times during 14 days) in a volume of 0.2 ml/mouse. […] At day 8, 13 and 18 after inoculation of tumor cells, the whole ascites fluid was recovered from the animals and the total number of live/dead cells in each mouse was determined. Some mice were also used to evaluate their average life span in the experiment.
Clinical observations were carried out as described in Example 7. The animals were divided into groups as follows (16 mice per group): • 1. Group No 1: control group, L1210+solvent (deuterium-depleted water); • 2. Group No 2: L1210+^64Zne aspartate administered i.v. at a dose of 25 μg/mouse; • 3. Group No 3: L1210+^64Zne aspartate administered i.p. at a dose of 25 μg/mouse; • 4. Group No 4: L1210+^64Zne aspartate administered i.p. at a dose of 50 μg/mouse; • 5. Group No 5: L1210+^64Zne aspartate administered i.p. at a dose of 75 μg/mouse.
^64Zne aspartate was diluted in deuterium-depleted water and injected, starting from the first day of the tumor transplantation, 7 times every other day during 14 days in a volume of 0.5 ml/mouse using an i.p. route of administration and in a volume of 0.2 ml/mouse using an i.v. route of administration. The animals of the control group received intraperitoneal injections with 0.5 ml/mouse of deuterium-depleted water.
The dynamics of formation of ascites in the control and experimental groups was assessed visually using a 10-point scale (one point was 0.5 cm of the mean diameter of the mouse abdomen filled with ascites).
In addition, at 8, 13 and 18 days after the mice were inoculated with the tumor cells, all ascitic fluid was removed from the abdomens in all animals from each group by washing their peritoneal cavities with saline solution and live and dead tumor cells were counted using the traditional vital dye trypan blue (HyClon, USA) and a hemocytometer.
The number of cells was determined using the following formula: X=((a)/80)×10^6, where X is the number of cells in 1 ml and a is the number of cells counted in 80 small squares of the hemocytometer.
50% of the mice in each group were used to assess their average length of survival in the experiment. The percentage change in the lifespan of the experimental animals was calculated using the following formula: (c−d)/[…]×100, where: c is the average lifespan in the experimental group and d is the average lifespan in the control group. The total time of observation of the lifespan of the experimental animals was 60 days after the tumor inoculation.

NC(CC(=O)[O-])C(=O)[O-].[64Zn+2] (racemic) [^64Zne aspartate, ^64Zn aspartate (racemic)]
decrease in the number of live cells in the peritoneal cavities (50 μg/mouse or 75 μg/mouse, after 3 injections): 100%
Number of live cells/mouse (M ± m) (day 8, i.p. 25 μg/mouse): 335.8 × 10^6
Percentage of dead tumor cells in ascites fluid (day 8, i.p. 25 μg/mouse): below 2%
Volume of ascites (M ± m) (day 8, i.p. 25 μg/mouse): 0.8 ± 0.8 ml/mouse
number of cells in the ascites of the one mouse with tumor cells (day 8, i.p. 25 μg/mouse, 1 of 2 mice): indicators (671. 6 × 10^6). No
Number of live cells/mouse (M ± m) (day 8, i.p. 50 μg/mouse): 0**
Percentage of dead tumor cells in ascites fluid (day 8, i.p. 50 μg/mouse): 0%
Volume of ascites (M ± m) (day 8, i.p. 50 μg/mouse): 0* ml/mouse
Number of live cells/mouse (M ± m) (day 8, i.p. 75 μg/mouse): 0**
Percentage of dead tumor cells in ascites fluid (day 8, i.p. 75 μg/mouse): 0%
Volume of ascites (M ± m) (day 8, i.p. 75 μg/mouse): 0* ml/mouse
Number of live cells/mouse (M ± m) (day 8, i.v. 25 μg/mouse): 902 × 10^6
Percentage of dead tumor cells in ascites fluid (day 8, i.v. 25 μg/mouse): below 2%
Volume of ascites (M ± m) (day 8, i.v. 25 μg/mouse): 1.2 ± 0.3 ml/mouse
Number of live cells/mouse (M ± m) (day 13, i.p. 25 μg/mouse): 532.7 × 10^6
Percentage of dead tumor cells in ascites fluid (day 13, i.p. 25 μg/mouse): below 3%
Volume of ascites (M ± m) (day 13, i.p. 25 μg/mouse): 1.9 ± 1.5 ml/mouse
Number of live cells/mouse (M ± m) (day 13, i.p. 50 μg/mouse): 0**
Percentage of dead tumor cells in ascites fluid (day 13, i.p. 50 μg/mouse): 0%
Volume of ascites (M ± m) (day 13, i.p. 50 μg/mouse): 0* ml/mouse
Number of live cells/mouse (M ± m) (day 13, i.p. 75 μg/mouse): 0**
Percentage of dead tumor cells in ascites fluid (day 13, i.p. 75 μg/mouse): 0%
Volume of ascites (M ± m) (day 13, i.p. 75 μg/mouse): 0* ml/mouse
Number of live cells/mouse (M ± m) (day 13, i.v. 25 μg/mouse): 1322 × 10^6
Percentage of dead tumor cells in ascites fluid (day 13, i.v. 25 μg/mouse): below 3%
Volume of ascites (M ± m) (day 13, i.v. 25 μg/mouse): 6 ± 1.5 ml/mouse
amount of ascites less than control (day 15, 50 μg): 87%
amount of ascites less than control (day 15, 75 μg): 90%
amount of ascites less than control (day 15, i.p. 25 μg/mouse): 60%
Average lifespan of animals (M ± m) (i.p. 25 μg/mouse): 28.1 ± 4.7 days
Increase in the lifespan of experimental animals (i.p. 25 μg/mouse): 41.3%
Number of animals in the group with tumor (i.p. 25 μg/mouse): 11 pc
Number of animals in the group without tumor (i.p. 25 μg/mouse): 5 pc
Tumor-free animals (i.p. 25 μg/mouse x7): 31.2%
Volume of ascites in mice (i.p. 25 μg/mouse x7, day 8): 0.6 ± 0.3 points
Volume of ascites in mice (i.p. 25 μg/mouse, day 10): 1.1 ± 0.5 points
Volume of ascites in mice (i.p. 25 μg/mouse, day 13): 2.5± 0.6 points
Volume of ascites in mice (i.p. 25 μg/mouse, day 15): 4.1 points and 4.1 ± 1.1 points
Volume of ascites in mice (i.p. 25 μg/mouse, day 18): 4.8 ± 1.4 points
Volume of ascites in mice (i.p. 25 μg/mouse, day 20): 4.6 ± 1.8 points
Volume of ascites in mice (i.p. 25 μg/mouse, day 22): 3.5 ± 2.2 points
Volume of ascites in mice (i.p. 25 μg/mouse, day 26): 2.5 ± 2.5 points
Volume of ascites in mice (i.p. 25 μg/mouse, day 28): 0 points
Average lifespan of animals (M ± m) (i.p. 50 μg/mouse): 41.6 ± 8.7 days
Increase in the lifespan of experimental animals (i.p. 50 μg/mouse): 60.3%
Number of animals in the group with tumor (i.p. 50 μg/mouse): 5 pc
Number of animals in the group without tumor (i.p. 50 μg/mouse): 11 pc
Tumor-free animals (i.p. 50 μg/mouse x7): 68.8%
Volume of ascites in mice (i.p. 50 μg/mouse x7, day 8): 0* points
Volume of ascites in mice (i.p. 50 μg/mouse, day 10): 0* points
Volume of ascites in mice (i.p. 50 μg/mouse, day 13): 0.4 ± 0.2 points
Volume of ascites in mice (i.p. 50 μg/mouse, day 15): 1.3 ± 0.7 points
Volume of ascites in mice (i.p. 50 μg/mouse, day 15, listed as 64Zn aspartate): 1.3 points
Volume of ascites in mice (i.p. 50 μg/mouse, day 18): 1.1 ± 1.1 points
Volume of ascites in mice (i.p. 50 μg/mouse, day 20): 0 points
Volume of ascites in mice (i.p. 50 μg/mouse, day 22): 0 points
Volume of ascites in mice (i.p. 50 μg/mouse, day 26): 0 points
Volume of ascites in mice (i.p. 50 μg/mouse, day 28): 0 points
Average lifespan of animals (M ± m) (i.p. 75 μg/mouse): 55 ± 5 days
Increase in the lifespan of experimental animals (i.p. 75 μg/mouse): 70%
Number of animals in the group with tumor (i.p. 75 μg/mouse): 1 pc
Number of animals in the group without tumor (i.p. 75 μg/mouse): 15 pc
Tumor-free animals (i.p. 75 μg/mouse x7): 93.8%
Volume of ascites in mice (i.p. 75 μg/mouse x7, day 8): 0* points
Volume of ascites in mice (i.p. 75 μg/mouse, day 10): 0* points
Volume of ascites in mice (i.p. 75 μg/mouse, day 13): 0.4 ± 0.4 points
Volume of ascites in mice (i.p. 75 μg/mouse, day 15): 1 ± 1 points
Volume of ascites in mice (i.p. 75 μg/mouse, day 15, listed as 64Zn aspartate): 1 points
Volume of ascites in mice (i.p. 75 μg/mouse, day 18): 1.1 ± 1.1 points
Volume of ascites in mice (i.p. 75 μg/mouse, day 20): 0 points
Volume of ascites in mice (i.p. 75 μg/mouse, day 22): 0 points
Volume of ascites in mice (i.p. 75 μg/mouse, day 26): 0 points
Volume of ascites in mice (i.p. 75 μg/mouse, day 28): 0 points
Increase in the lifespan of experimental animals (i.v. 25 μg/mouse): 2.4%
Number of animals in the group without tumor (i.v. 25 μg/mouse): 0 pc
Tumor-free animals (i.v. 25 μg/mouse): 0%
Volume of ascites in mice (i.v. 25 μg/mouse x7, day 8): 3.3 ± 0.3 points
Number of animals in the group with tumor (i.v. 25 μg/mouse, 16 mice per group): 16 pc
Average lifespan of animals (M ± m) (i.v. 25 μg/mouse, 60 days observation): 16.9 ± 1.3 days
Volume of ascites in mice (i.v. 25 μg/mouse, day 10): 4.7 ± 0.4 points
Volume of ascites in mice (i.v. 25 μg/mouse, day 13): 7.7 ± 0.4 points
Volume of ascites in mice (i.v. 25 μg/mouse, day 15): 9.7 ± 0.3 points
Volume of ascites in mice (i.v. 25 μg/mouse, day 18): 8 ± 0.9 points
Volume of ascites in mice (i.v. 25 μg/mouse, day 20): 10 points
percentage of dead tumor cells in the ascites treated with the agent (mouse, in vivo): ≤ 5%
effect on the growth of mouse leukemia L1210 cells (series of intravenous injections): no effect
